The subject of assay [1] is Toledo cells. Nature of the assay: Toledo cell proliferation inhibition assay. The assay is classed as cell-based. To be noted: Homo sapiens, Toledo, 144 h; six-day assay, CellTiter-Glo. In a few lines: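 Toledo cells seeded at 2000 cells/well in RPMI 1640 + 10% FBS and incubated with compound for six days at 37° C, 5% CO2. Viability was then read by CellTiter-Glo luminescence after 30 min orbital mixing.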
(In general: Cellular ATP, detected with luciferase, serves as a proxy for viable cell number.)

Assay [2] deals with PRMT3 (Homo sapiens, UniProt O60678). Nature of the assay: PRMT panel selectivity test, PRMT3. Type of assay: biochemical. Particulars: AlphaLISA. The protocol: (§1) This experiment was assayed in a buffer prepared on the same day consisting of 10 mMTirs-HCl (pH=8.0), […] and 1 mM DTT. The compounds were prepared to the highest inhibitor concentration ultimately required in the 100× reaction with 100% DMSO and then transferred to one well of a 384-well Echo plate (Echo-eligible 384-well polypropylene microplates 2.0, transparent, flat-bottomed) and sequentially diluted in the next well with a 3-fold dilution of 100% DMSO, and so on, with a total of 10 concentrations based on Precision. 100% DMSO was added to two empty wells as control well without compound and control well without enzyme in the same 384-well Echo plate. 100 nL of compound was transferred from each well of the 384-well Echo plate to a 384-well assay plate (OptiPlate (384-well, white)) via the Echo 550 liquid processor. For wells with compounds and control well without compound, a mixture containing PRMT1 enzyme (5 uL) was added to the 384-well assay plate. For control well without enzyme, a mixture containing test buffer (5 uL) was added instead. The compounds were allowed to incubate with PRMT3 for 15 minutes at room temperature, and then a mixture containing cold SAM and peptide (5 uL) was added to start the reaction (final volume=10 uL). The final concentrations of the components were as follows: 0.1 nM for PRMT3, 15 uM for SAM, 0.05 uM for peptide, and 1% DMSO. After 60 min of incubation at room temperature, the reaction was terminated by the addition of donor and acceptor magnetic beads (15 uL) with a final concentration of 10 ug/mL diluted with AlphaLISA Epigenetics Buffer. The 384-well assay plate was incubated at room temperature for 60 min and the relative fluorescence units (RFU) were nextly determined using a multi-mode plate reader in Alpha mode (Ex680/Em615).
(§2) Curve fitting: the raw data were copied from Reader and the inhibition values were calculated in Excel by equation (1). […]

Assay [3] has as its target T1, PRMT4 (Homo sapiens, UniProt Q86X55).
T1 sequence (Q86X55 1-608): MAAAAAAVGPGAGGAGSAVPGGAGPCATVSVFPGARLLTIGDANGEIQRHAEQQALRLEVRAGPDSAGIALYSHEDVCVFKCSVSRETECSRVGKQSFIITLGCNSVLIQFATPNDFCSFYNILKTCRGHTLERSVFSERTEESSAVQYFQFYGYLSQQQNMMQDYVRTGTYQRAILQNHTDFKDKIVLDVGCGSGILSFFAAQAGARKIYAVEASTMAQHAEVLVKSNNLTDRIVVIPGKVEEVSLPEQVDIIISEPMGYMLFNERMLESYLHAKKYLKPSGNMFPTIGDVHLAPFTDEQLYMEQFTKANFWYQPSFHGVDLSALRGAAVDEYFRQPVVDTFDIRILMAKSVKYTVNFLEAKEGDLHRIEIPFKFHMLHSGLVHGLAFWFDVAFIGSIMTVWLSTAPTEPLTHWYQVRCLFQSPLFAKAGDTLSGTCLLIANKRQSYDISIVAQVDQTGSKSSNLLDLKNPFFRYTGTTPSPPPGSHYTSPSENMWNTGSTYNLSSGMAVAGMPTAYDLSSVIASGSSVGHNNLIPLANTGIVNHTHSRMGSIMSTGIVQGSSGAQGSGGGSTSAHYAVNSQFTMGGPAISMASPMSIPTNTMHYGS
Nature of the assay: PRMT panel selectivity test, PRMT4. The assay is classed as biochemical. How it is done: [The procedure below names another target; the source says it served here with some conditions changed.] as §1, §2

Assay [4] addresses PRMT6 (Homo sapiens, UniProt Q96LA8). Nature of the assay: PRMT panel selectivity test, PRMT6. The assay is classed as biochemical. The protocol: [The procedure below names another target; the source says it served here with some conditions changed.] as §1, §2

PRMT3, sequence (O60678 whole entry): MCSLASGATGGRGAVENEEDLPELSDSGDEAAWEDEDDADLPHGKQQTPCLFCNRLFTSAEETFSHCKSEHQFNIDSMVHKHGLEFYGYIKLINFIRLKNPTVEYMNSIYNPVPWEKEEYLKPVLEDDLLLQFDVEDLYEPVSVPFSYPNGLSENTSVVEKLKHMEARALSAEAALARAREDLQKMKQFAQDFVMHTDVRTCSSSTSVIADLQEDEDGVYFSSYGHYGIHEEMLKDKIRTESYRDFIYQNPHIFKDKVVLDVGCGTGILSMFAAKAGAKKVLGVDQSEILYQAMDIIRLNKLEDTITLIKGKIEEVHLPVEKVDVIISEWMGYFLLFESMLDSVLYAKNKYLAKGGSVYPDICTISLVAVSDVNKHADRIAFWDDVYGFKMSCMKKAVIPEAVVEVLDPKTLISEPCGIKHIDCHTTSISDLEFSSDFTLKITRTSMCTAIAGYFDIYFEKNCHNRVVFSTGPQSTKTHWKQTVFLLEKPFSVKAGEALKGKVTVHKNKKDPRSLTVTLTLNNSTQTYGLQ
PRMT6, sequence (Q96LA8 whole entry): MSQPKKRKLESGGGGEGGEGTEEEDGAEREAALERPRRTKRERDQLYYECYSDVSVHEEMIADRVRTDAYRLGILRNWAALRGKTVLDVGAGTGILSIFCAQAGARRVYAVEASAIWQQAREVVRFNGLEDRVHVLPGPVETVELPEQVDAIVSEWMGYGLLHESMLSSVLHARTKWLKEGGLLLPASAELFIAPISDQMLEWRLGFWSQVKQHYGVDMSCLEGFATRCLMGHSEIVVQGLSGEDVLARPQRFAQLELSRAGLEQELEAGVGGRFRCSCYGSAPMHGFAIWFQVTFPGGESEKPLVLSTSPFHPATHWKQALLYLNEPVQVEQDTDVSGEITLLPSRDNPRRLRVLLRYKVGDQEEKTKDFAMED

What is called IC50 is the concentration that inhibits the measured activity by half. Low readings indicate inhibition by little substance, high ones a need for much substance. Consider `CNCCN(C)Cc1ccccc1C1CCN(c2ccccc2)CC1` [P023], for which the IC50 is under 1000 nM in assay [1], under 50 nM in assay [2], under 50 nM in assay [3] and under 50 nM in assay [4].

Take `CNCCN(C)Cc1ncccc1N1CCc2ccccc2CC1` [P118]: the IC50 in assay [1] is under 1000 nM; in assay [2] it was 50 to 500 nM; in assay [3], 50 to 500 nM; in assay [4] it was under 50 nM.

As to `CCOCC1(COCC)CCC(c2cccnc2CN(C)CCNC)CC1` [P207], the half-inhibitory concentration (IC50) in assay [1] is under 1000 nM; in assay [2], 50 to 500 nM; in assay [3] it was under 50 nM; in assay [4] it was under 50 nM.

The record behind these values is US20240307409A1, “ARGININE METHYLTRANSFERASE INHIBITOR AND USE THEREOF” (Cytosinlab Therapeutics Co., Ltd., priority 2021, published 2024).
